# Assay results: patent publication US8173157B2, “Pharmaceutical composition comprising phenylamidine derivative and method of using the pharmaceutical composition in combination with antifungal agent” (Toyama Chemical Co., Ltd., priority 2006, dated 2012)
# Numbered stars: 1 amine (or outer) side, 2 acyl side, 3 side chain; on linkers, the order of the positions; unused ones are H or OH. Bridge positions count the residues as written; N and C are the ends. Square brackets hold non-standard residues; d marks the D form. Peptide text beside a SMILES is read from it. * marks the point of attachment. hTyr(3S-OH,4S-OH,3'-OSO3H) = N[C@H](C(=O)O)[C@H](O)[C@@H](O)c1ccc(O)c(OS(=O)(=O)O)c1; Orn(4R-OH,5R-OH) = O=C([C@H](C[C@@H](O)[C@@H](O)N[*:3])N[*:1])[*:2]; Pro(3S-OH,4S-Me) = C[C@H]1CN[C@H](C(=O)O)[C@H]1O; X1 = CCCCCOc1ccc(-c2cc(-c3ccc(C(=O)*)cc3)no2)cc1; Gln(3R-OH) = NC(=O)C[C@@H](O)[C@H](N)C(=O)O; Hyp = O=C(O)[C@@H]1C[C@@H](O)CN1
# Tests used:
# [1] = tested on: Candida albicans TIMM1623; test: In vivo test: murine systemic infection caused by Candida albicans; details: ICR mice, day 21 after infection, once daily, 7 times
# Protocol: In vivo activity was evaluated in murine systemic infection caused by Candida albicans.
# (§1) Mice (4-week old (at infection) male ICR mice, 5 mice per group) were intraperitoneally administered 200 mg/kg of cyclophosphamide 4 days before infection and 100 mg/kg on the following day after infection. Candida albicans TIMM1623, which were prepared from overnight culture on a Sabouraud Dextrose Agar plate at 35° C., were suspended in sterile physiological saline solution. After counting cell number of the suspension with a biological microscope, the suspension was diluted with sterile physiological saline solution to give the inoculum solution. Systemic infection was induced in mice by intravenous inoculation of 0.2 mL of the inoculum solution into the tail vein (2.6×10^4 CFU/mouse).
# (§2) The test compound was dissolved in a small amount of 0.1 mol/L hydrochloric acid, and the solution was diluted with sterilized water to prepare predetermined concentrations.
# Fluconazole (a commercial name: FLANOS intravenous drip solution 100 mg, made by Toyama Chemical Co., Ltd.) was diluted with sterilized water to prepare fluconazole solutions of predetermined concentrations.
# Micafungin sodium (a commercial name: Funguard 50 mg for infusion, made by Astellas Pharma Inc.) was dissolved in sterile physiological saline solution to prepare micafungin solutions of predetermined concentrations.
# Amphotericin B for injection (a commercial name: FUNGIZONE, made by Bristol pharmaceutical Ltd.) was dissolved in 5% glucose to prepare an amphotericin B solution of a predetermined concentration.
# The test compound (0.25 and 0.5 mg/kg) and fluconazole (0.25 and 0.5 mg/kg) were orally administered. Micafungin (0.125 and 0.25 mg/kg) and amphotericin B (0.1 mg/kg) were subcutaneously administered. These administrations were conducted once 2 hours after the infection and then once daily for the following 6 days, totaling 7 times.
# On one hand each of the agents was administered singly, on the other hand each of the agents was administered immediately after the test compound was administered.
# The efficacy was evaluated on the basis of the survival rate on day 21 after infection.
# [2] = tested on: Aspergillus fumigatus IFM46895; details: general statement ("as usual"); cited from earlier work
# [3] = tested on: Aspergillus fumigatus IFM46895; test: In vivo test: murine systemic infection caused by Aspergillus fumigatus; details: for Survival rate: ICR mice, day 21 after infection, once daily, 7 times
# Protocol: In vivo activity was evaluated in murine systemic infection caused by Aspergillus fumigatus.
# Mice (4-week old (at infection) male ICR mice, 5 mice per group) were intraperitoneally administered 200 mg/kg of cyclophosphamide 4 days before infection and 100 mg/kg on the following day after infection. Conidia suspension of Aspergillus fumigatus IFM46895 was diluted with sterile physiological saline solution containing 0.05% Tween 80 (manufactured by Difco Laboratories) in sterile physiological saline solution to give the inoculum solution. Systemic infection was induced in mice by intravenous inoculation of 0.2 mL of the inoculum solution into the tail vein (1.6×10^5 CFU/mouse).
# as §2
# Flucytosine (made by Sigma Company) was suspended in 0.5% methyl cellulose liquid to prepare predetermined concentrations for administration.
# Voriconazole (a commercial name: Vfend 200 mg for intravenous use, made by Pfizer Inc.) was diluted with sterilized water to prepare voriconazole solutions of predetermined concentrations for administration.
# The test compound (1 and 3 mg/kg), flucytosine (50 and 250 mg/kg) and voriconazole (5 and 10 mg/kg) were orally administered. The administrations were conducted once 2 hours after the infection and then once daily for the following 6 days, totaling 7 times.
# (§3) On one hand each of the agents was administered singly, on the other hand each of the agents was administered immediately after the test compound was administered. The efficacy was evaluated on the basis of the survival rate on day 21 after infection.
# [4] = tested on: Cryptococcus neoformans ATCC90112; test: In vivo test: murine systematic infection caused by Cryptococcus neoformans; details: ICR mice, day 21 after infection, once daily, 7 times
# Protocol: In vivo activity was evaluated in murine systematic infection caused by Cryptococcus neoformans.
# as §1, with “Cryptococcus neoformans ATCC90112 cells,” for “Candida albicans TIMM1623,”, “Systematic” for “Systemic”, “injection” for “inoculation”, “(8.5×10^4” for “(2.6×10^4”
# The test compound was dissolved in a small amount of 0.1 mol/L hydrochloric acid, and the solution was diluted with sterilized water to prepare predetermined concentrations. […]
# as §3
# [5] = Toxicity on consecutive oral administration to mice; type: in vivo; details: orally administered consecutively at 25 mg/kg for 2 weeks
smiles,measurement,setting,value
"C[C@@H]1[C@H](O)[C@@H](C)/C=C/C=C/C=C/C=C/C=C/C=C/C=C/[C@H](O[C@@H]2O[C@H](C)[C@@H](O)[C@H](N)[C@@H]2O)C[C@@H]2O[C@](O)(C[C@@H](O)C[C@@H](O)[C@H](O)CC[C@@H](O)C[C@@H](O)CC(=O)O[C@H]1C)C[C@H](O)[C@H]2C(=O)O [AMPH-B, amphotericin B]",Survival rate,[1]; AMPH-B 0.1 mg/kg subcutaneously,20
"Nc1[nH]c(=O)ncc1F [Example 5-FC, flucytosine]",Effect against Aspergillus fumigatus,[2],almost no effect
same,Survival rate,[3]; 5-FC 250 mg/kg orally,0
same,Therapeutic effect,"[3]; murine systemic infection, flucytosine 250 mg/kg administered singly",no therapeutic effect
"OC(Cn1cncn1)(Cn1cncn1)c1ccc(F)cc1F [FLCZ, fluconazole]",Survival rate,[1]; FLCZ 0.25 mg/kg orally,20
same,Survival rate,[1]; FLCZ 0.5 mg/kg orally,40
same,Survival rate,[4]; FLCZ 20 mg/kg orally,20
"CCCCCOc1ccc(-c2cc(-c3ccc(C(=O)N[C@H]4C[C@@H](O)[C@@H](O)NC(=O)[C@@H]5[C@@H](O)[C@@H](C)CN5C(=O)[C@H]([C@H](O)CC(N)=O)NC(=O)[C@H]([C@H](O)[C@@H](O)c5ccc(O)c(OS(=O)(=O)O)c5)NC(=O)[C@@H]5C[C@@H](O)CN5C(=O)[C@H]([C@@H](C)O)NC4=O)cc3)no2)cc1 [MCFG, micafungin] (X1-[Orn(4R-OH,5R-OH)]T[Hyp][hTyr(3S-OH,4S-OH,3'-OSO3H)][Gln(3R-OH)][Pro(3S-OH,4S-Me)]; lactam 1-C)",Survival rate,[1]; MCFG 0.125 mg/kg subcutaneously,0
same,Survival rate,[1]; MCFG 0.25 mg/kg subcutaneously,40
"CCCCOC(=O)N=C(N)c1ccc(OCCCC2CCN(CCCOc3ccc(C(N)=NC(=O)OCCCC)cc3)CC2)cc1 [Test compound, 4-{3-[4-(3-{4-[amino(butoxycarbonylimino)methyl]phenoxy}propyl)-1-piperidinyl]propoxy}-N′-(butoxycarbonyl)benzamidine]",Survival rate,[1]; test compound 0.5 mg/kg orally,0
same,Toxicity,[5],did not show toxicity at all
same,Survival rate,[4]; test compound 1 mg/kg orally,0
same,Survival rate,[3]; test compound 1 mg/kg orally,0
same,Survival rate,[3]; test compound 3 mg/kg orally,20
"C[C@@H](c1ncncc1F)[C@](O)(Cn1cncn1)c1ccc(F)cc1F [VCZ, voriconazole]",Survival rate,[3]; VCZ 10 mg/kg orally,0
